From the supplement of paper PMC11451515

System: P12-Ichikawa
Experiment: cell viability relative to DMSO control; higher = less cytotoxic
Conditions: 48 h
Outline: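 Viability, reported as a per-plate percentage of DMSO wells with cell-free wells as background, came from CellTiter-Glo One luminescence. Reading took place after 48 h at 37°C. Before that, NOMO1 or SEM (500 cells/well) or P12-Ichikawa (1000 cells/well) leukemia cells, adapted for at least four passages in each medium, were seeded in 1536-well plates (5 μl) and pin-dosed with library compounds in DMSO, 47 μM to 0.79 nM over 11 threefold points.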

[1] = HPLM + 10% dialyzed FBS, 0.000781 µM
[2] = HPLM + 10% dialyzed FBS, 0.00234 µM
[3] = HPLM + 10% dialyzed FBS, 0.00702 µM
[4] = HPLM + 10% dialyzed FBS, 0.0211 µM
[5] = HPLM + 10% dialyzed FBS, 0.0632 µM
[6] = HPLM + 10% dialyzed FBS, 0.19 µM
[7] = HPLM + 10% dialyzed FBS, 0.569 µM
[8] = HPLM + 10% dialyzed FBS, 1.71 µM
[9] = HPLM + 10% dialyzed FBS, 5.12 µM
[10] = HPLM + 10% dialyzed FBS, 15.4 µM
[11] = HPLM + 10% dialyzed FBS, 46.1 µM
[12] = RPMI 5 mM glucose + 10% FBS, 0.000781 µM
[13] = RPMI 5 mM glucose + 10% FBS, 0.00234 µM
[14] = RPMI 5 mM glucose + 10% FBS, 0.00702 µM
[15] = RPMI 5 mM glucose + 10% FBS, 0.0211 µM
[16] = RPMI 5 mM glucose + 10% FBS, 0.0632 µM
[17] = RPMI 5 mM glucose + 10% FBS, 0.19 µM
[18] = RPMI 5 mM glucose + 10% FBS, 0.569 µM
[19] = RPMI 5 mM glucose + 10% FBS, 1.71 µM
[20] = RPMI 5 mM glucose + 10% FBS, 5.12 µM
[21] = RPMI 5 mM glucose + 10% FBS, 15.4 µM
[22] = RPMI 5 mM glucose + 10% FBS, 46.1 µM
[23] = RPMI 5 mM glucose + 10% dialyzed FBS, 0.000781 µM
[24] = RPMI 5 mM glucose + 10% dialyzed FBS, 0.00234 µM
[25] = RPMI 5 mM glucose + 10% dialyzed FBS, 0.00702 µM
[26] = RPMI 5 mM glucose + 10% dialyzed FBS, 0.0211 µM
[27] = RPMI 5 mM glucose + 10% dialyzed FBS, 0.0632 µM
[28] = RPMI 5 mM glucose + 10% dialyzed FBS, 0.19 µM
[29] = RPMI 5 mM glucose + 10% dialyzed FBS, 0.569 µM
[30] = RPMI 5 mM glucose + 10% dialyzed FBS, 1.71 µM
[31] = RPMI 5 mM glucose + 10% dialyzed FBS, 5.12 µM
[32] = RPMI 5 mM glucose + 10% dialyzed FBS, 15.4 µM
[33] = RPMI 5 mM glucose + 10% dialyzed FBS, 46.1 µM

Cc1cc2c(C(N)=O)cccc2n1-c1nc2c(c(NCc3ccccc3)n1)COCC2 showed a cell viability [1] of 99.5%, a cell viability [2] of 92.4% and a cell viability [3] of 92.2%. It also gave a cell viability [4] of 93.2%, a cell viability [5] of 99.8% and a cell viability [6] of 89.6%. It also gave a cell viability [7] of 78.4%, a cell viability [8] of 85.9% and a cell viability [9] of 2.18%. For the same compound, the cell viability [10] was 2.06%, the cell viability [11] was 3.98% and the cell viability [12] was 99.6%. The cell viability [13] was 96.2%, the cell viability [14] was 95.5% and the cell viability [15] was 93.8%. The cell viability [16] was 91.2%, the cell viability [17] was 94.6% and the cell viability [18] was 81.7%. It also gave a cell viability [19] of 63.1%, a cell viability [20] of 2.37% and a cell viability [21] of 1.97%. For the same compound, the cell viability [22] was 2.61%, the cell viability [23] was 95.9% and the cell viability [24] was 94.4%. It also gave a cell viability [25] of 95.6%, a cell viability [26] of 97.7% and a cell viability [27] of 96.3%. For the same compound, the cell viability [28] was 95.4%, the cell viability [29] was 91.8% and the cell viability [30] was 72.9%. It also gave a cell viability [31] of 2.73%, a cell viability [32] of 2.42% and a cell viability [33] of 2.96%.
In the case of CNC(=O)c1ccc(Nc2cc(Nc3ccccc3[S+](=O)([O-])C(C)C)c3cc[nH]c3n2)nc1, the cell viability [1] was 98.8%, the cell viability [2] was 104% and the cell viability [3] was 107%. It also gave a cell viability [4] of 100%, a cell viability [5] of 110% and a cell viability [6] of 111%. It also gave a cell viability [7] of 113%, a cell viability [8] of 89.8% and a cell viability [9] of 12.5%. It also gave a cell viability [10] of 10.6%, a cell viability [11] of 22.3% and a cell viability [12] of 108%. The cell viability [13] was 108%, the cell viability [14] was 105% and the cell viability [15] was 115%. It also gave a cell viability [16] of 105%, a cell viability [17] of 113% and a cell viability [18] of 98.1%. For the same compound, the cell viability [19] was 66.7%, the cell viability [20] was 14.7% and the cell viability [21] was 12.6%. The cell viability [22] was 19.2%, the cell viability [23] was 109% and the cell viability [24] was 105%. It also gave a cell viability [25] of 111%, a cell viability [26] of 105% and a cell viability [27] of 116%. The cell viability [28] was 118%, the cell viability [29] was 107% and the cell viability [30] was 83.5%. For the same compound, the cell viability [31] was 26.7%, the cell viability [32] was 28.2% and the cell viability [33] was 29.6%.
C=CC(=O)Nc1cc2c(Nc3ccc(F)c(Cl)c3)ncnc2cc1OCCCN1CCOCC1 showed a cell viability [1] of 124%, a cell viability [2] of 132% and a cell viability [3] of 119%. For the same compound, the cell viability [4] was 120%, the cell viability [5] was 118% and the cell viability [6] was 122%. For the same compound, the cell viability [7] was 113%, the cell viability [8] was 109% and the cell viability [9] was 94.3%. The cell viability [10] was 67.2%, the cell viability [11] was 53.1% and the cell viability [12] was 117%. It also gave a cell viability [13] of 124%, a cell viability [14] of 125% and a cell viability [15] of 126%. For the same compound, the cell viability [16] was 111%, the cell viability [17] was 110% and the cell viability [18] was 118%. It also gave a cell viability [19] of 110%, a cell viability [20] of 93.5% and a cell viability [21] of 73.6%. For the same compound, the cell viability [22] was 89.8%, the cell viability [23] was 134% and the cell viability [24] was 122%. For the same compound, the cell viability [25] was 119%, the cell viability [26] was 126% and the cell viability [27] was 126%. For the same compound, the cell viability [28] was 128%, the cell viability [29] was 127% and the cell viability [30] was 108%. It also gave a cell viability [31] of 96.4%, a cell viability [32] of 91.6% and a cell viability [33] of 100%.
